# ChEMBL document CHEMBL3885881, “DrugMatrix”
# Species on record: Rattus norvegicus
# Assay: DrugMatrix - Regimen: Daily Repeat
# Assay type: toxicity, organism-based, Sprague-Dawley
# Design: regimen Daily Repeat, gender Male, age 6-8 weeks
# Settings: in vivo, po, route oral GAVAGE, vehicle 100 % SALINE; for TOTAL BILIRUBIN / URIC ACID / ALANINE AMINOTRANSFERASE / ALBUMIN / ALKALINE PHOSPHATASE / ASPARTATE AMINOTRANSFERASE / BLOOD UREA NITROGEN / CARBON DIOXIDE / CHLORIDE / CHOLESTEROL / CREATINE PHOSPHOKINASE / CREATININE / GLUCOSE / LIPASE / PHOSPHORUS / POTASSIUM / SODIUM / TOTAL PROTEIN: tissue Plasma; for ABSOLUTE BASOPHIL / ABSOLUTE EOSINOPHIL / ABSOLUTE LYMPHOCYTE / ABSOLUTE MONOCYTE / BASOPHIL / EOSINOPHIL / ERYTHROCYTE COUNT / HEMATOCRIT / HEMOGLOBIN / LEUKOCYTE COUNT / LYMPHOCYTE / MEAN CORPUSCULAR HEMOGLOBIN / MEAN CORPUSCULAR HEMOGLOBIN CONCENTRATION / MEAN CORPUSCULAR VOLUME / MONOCYTE / NEUTROPHIL / PLATELET COUNT: tissue Blood
# [1] = 0 mg/kg, 120 h, dose level Control, time 5 day
# [2] = 0 mg/kg, […], dose level Control, time 14 day
# [3] = 2 mg/kg, 72 h, dose level High, time 3 day
# [4] = 2 mg/kg, 120 h, dose level High, time 5 day
# [5] = 2 mg/kg, […], dose level High, time 14 day
smiles,measurement,setting,value
COc1cccc2c1C(=O)c1c(O)c3c(c(O)c1C2=O)C[C@@](O)(C(C)=O)C[C@@H]3O[C@H]1C[C@H](N)[C@H](O)[C@H](C)O1 [DAUNORUBICIN],TOTAL BILIRUBIN,[1],0.37 mg/dL
same,URIC ACID,[1],0.97 mg/dL
same,ABSOLUTE BASOPHIL,[2],93.3 cells/µL
same,ABSOLUTE EOSINOPHIL,[2],80 cells/µL
same,ABSOLUTE LYMPHOCYTE,[2],6890 cells/µL
same,ABSOLUTE MONOCYTE,[2],170 cells/µL
same,BASOPHIL,[2],1%
same,EOSINOPHIL,[2],0.83%
same,ERYTHROCYTE COUNT,[2],7.03 x10E6/uL
same,HEMATOCRIT,[2],43.4%
same,HEMOGLOBIN,[2],14.83 G/DL
same,LEUKOCYTE COUNT,[2],8.94 x10E3/uL
same,LYMPHOCYTE,[2],77.93%
same,MEAN CORPUSCULAR HEMOGLOBIN,[2],21.1 pg
same,MEAN CORPUSCULAR HEMOGLOBIN CONCENTRATION,[2],34.17 G/DL
same,MEAN CORPUSCULAR VOLUME,[2],61.77 fL
same,MONOCYTE,[2],1.33%
same,NEUTROPHIL,[2],18%
same,PLATELET COUNT,[2],1097.33 x10E3/uL
same,ALANINE AMINOTRANSFERASE,[2],32 u/L
same,ALBUMIN,[2],3.83 G/DL
same,ALKALINE PHOSPHATASE,[2],334.67 u/L
same,ASPARTATE AMINOTRANSFERASE,[2],69.33 u/L
same,BLOOD UREA NITROGEN,[2],16 mg/dL
same,CARBON DIOXIDE,[2],40 mmol/L
same,CHLORIDE,[2],105.67 MEQ/L
same,CHOLESTEROL,[2],70.33 mg/dL
same,CREATINE PHOSPHOKINASE,[2],144.67 u/L
same,CREATININE,[2],0.3 mg/dL
same,GLUCOSE,[2],177.67 mg/dL
same,LIPASE,[2],16.33 u/L
same,PHOSPHORUS,[2],10.83 mg/dL
same,POTASSIUM,[2],5.77 MEQ/L
same,SODIUM,[2],143.33 MEQ/L
same,TOTAL BILIRUBIN,[2],0.33 mg/dL
same,TOTAL PROTEIN,[2],6.37 G/DL
same,URIC ACID,[2],0.17 mg/dL
same,ABSOLUTE BASOPHIL,[3],110 cells/µL
same,ABSOLUTE EOSINOPHIL,[3],210 cells/µL
same,ABSOLUTE LYMPHOCYTE,[3],7080 cells/µL
same,ABSOLUTE MONOCYTE,[3],140 cells/µL
same,BASOPHIL,[3],1.17%
same,EOSINOPHIL,[3],2.47%
same,ERYTHROCYTE COUNT,[3],6.67 x10E6/uL
same,HEMATOCRIT,[3],42.37%
same,HEMOGLOBIN,[3],13.97 G/DL
same,LEUKOCYTE COUNT,[3],8.7 x10E3/uL
same,LYMPHOCYTE,[3],80.87%
same,MEAN CORPUSCULAR HEMOGLOBIN,[3],20.97 pg
same,MEAN CORPUSCULAR HEMOGLOBIN CONCENTRATION,[3],33 G/DL
same,MEAN CORPUSCULAR VOLUME,[3],63.57 fL
same,MONOCYTE,[3],1.7%
same,NEUTROPHIL,[3],13.37%
same,PLATELET COUNT,[3],1161.67 x10E3/uL
same,ALANINE AMINOTRANSFERASE,[3],34 u/L
same,ALBUMIN,[3],3.9 G/DL
same,ALKALINE PHOSPHATASE,[3],354 u/L
same,ASPARTATE AMINOTRANSFERASE,[3],68 u/L
same,BLOOD UREA NITROGEN,[3],16.67 mg/dL
same,CARBON DIOXIDE,[3],36 mmol/L
same,CHLORIDE,[3],104 MEQ/L
same,CHOLESTEROL,[3],67.67 mg/dL
same,CREATINE PHOSPHOKINASE,[3],219 u/L
same,CREATININE,[3],0.4 mg/dL
same,GLUCOSE,[3],175 mg/dL
same,LIPASE,[3],11 u/L
same,PHOSPHORUS,[3],12.2 mg/dL
same,POTASSIUM,[3],6.47 MEQ/L
same,SODIUM,[3],142.67 MEQ/L
same,TOTAL BILIRUBIN,[3],0.37 mg/dL
same,TOTAL PROTEIN,[3],6.43 G/DL
same,URIC ACID,[3],1.17 mg/dL
same,ABSOLUTE BASOPHIL,[4],75 cells/µL
same,ABSOLUTE EOSINOPHIL,[4],40 cells/µL
same,ABSOLUTE LYMPHOCYTE,[4],7990 cells/µL
same,ABSOLUTE MONOCYTE,[4],140 cells/µL
same,BASOPHIL,[4],0.9%
same,EOSINOPHIL,[4],0.5%
same,ERYTHROCYTE COUNT,[4],6.82 x10E6/uL
same,HEMATOCRIT,[4],42.9%
same,HEMOGLOBIN,[4],13.75 G/DL
same,LEUKOCYTE COUNT,[4],9.39 x10E3/uL
same,LYMPHOCYTE,[4],84.25%
same,MEAN CORPUSCULAR HEMOGLOBIN,[4],20.2 pg
same,MEAN CORPUSCULAR HEMOGLOBIN CONCENTRATION,[4],32.15 G/DL
same,MEAN CORPUSCULAR VOLUME,[4],62.9 fL
same,MONOCYTE,[4],1.5%
same,NEUTROPHIL,[4],12.5%
same,PLATELET COUNT,[4],1293.5 x10E3/uL
same,ALANINE AMINOTRANSFERASE,[4],27.67 u/L
same,ALBUMIN,[4],3.93 G/DL
same,ALKALINE PHOSPHATASE,[4],361.67 u/L
same,ASPARTATE AMINOTRANSFERASE,[4],66 u/L
same,BLOOD UREA NITROGEN,[4],14.67 mg/dL
same,CARBON DIOXIDE,[4],35 mmol/L
same,CHLORIDE,[4],106.67 MEQ/L
same,CHOLESTEROL,[4],68.67 mg/dL
same,CREATINE PHOSPHOKINASE,[4],274.67 u/L
same,CREATININE,[4],0.4 mg/dL
same,GLUCOSE,[4],192.33 mg/dL
same,LIPASE,[4],9 u/L
same,PHOSPHORUS,[4],11.87 mg/dL
same,POTASSIUM,[4],6.67 MEQ/L
same,SODIUM,[4],146 MEQ/L
same,TOTAL BILIRUBIN,[4],0.37 mg/dL
same,TOTAL PROTEIN,[4],6.33 G/DL
same,URIC ACID,[4],1.37 mg/dL
same,ABSOLUTE BASOPHIL,[5],120 cells/µL
same,ABSOLUTE EOSINOPHIL,[5],74 cells/µL
same,ABSOLUTE LYMPHOCYTE,[5],8830 cells/µL
same,ABSOLUTE MONOCYTE,[5],250 cells/µL
same,BASOPHIL,[5],1.1%
same,EOSINOPHIL,[5],0.66%
same,ERYTHROCYTE COUNT,[5],7.41 x10E6/uL
same,HEMATOCRIT,[5],45.06%
same,HEMOGLOBIN,[5],15.1 G/DL
same,LEUKOCYTE COUNT,[5],11 x10E3/uL
same,LYMPHOCYTE,[5],80.4%
same,MEAN CORPUSCULAR HEMOGLOBIN,[5],20.36 pg
same,MEAN CORPUSCULAR HEMOGLOBIN CONCENTRATION,[5],33.46 G/DL
same,MEAN CORPUSCULAR VOLUME,[5],60.78 fL
same,MONOCYTE,[5],2%
same,NEUTROPHIL,[5],15.02%
same,PLATELET COUNT,[5],1090.8 x10E3/uL
same,ALANINE AMINOTRANSFERASE,[5],31.8 u/L
same,ALBUMIN,[5],3.88 G/DL
same,ALKALINE PHOSPHATASE,[5],326.6 u/L
same,ASPARTATE AMINOTRANSFERASE,[5],64.8 u/L
same,BLOOD UREA NITROGEN,[5],16.6 mg/dL
same,CARBON DIOXIDE,[5],42.4 mmol/L
same,CHLORIDE,[5],106 MEQ/L
same,CHOLESTEROL,[5],66.4 mg/dL
same,CREATINE PHOSPHOKINASE,[5],203 u/L
same,CREATININE,[5],0.4 mg/dL
same,GLUCOSE,[5],167.6 mg/dL
same,LIPASE,[5],12.4 u/L
same,PHOSPHORUS,[5],9.42 mg/dL
same,POTASSIUM,[5],6.3 MEQ/L
same,SODIUM,[5],144.4 MEQ/L
same,TOTAL BILIRUBIN,[5],0.4 mg/dL
same,TOTAL PROTEIN,[5],6.36 G/DL
same,URIC ACID,[5],0.04 mg/dL
